The values that follow come from patent US11401255B2, “Small molecule activators of Parkin enzyme function” (Mayo Foundation for Medical Education and Research, priority 2016, dated 2022).

The structures appear in SMILES notation. Some results are limits rather than exact numbers.

CYP 2C9, sequence (P11712 whole entry): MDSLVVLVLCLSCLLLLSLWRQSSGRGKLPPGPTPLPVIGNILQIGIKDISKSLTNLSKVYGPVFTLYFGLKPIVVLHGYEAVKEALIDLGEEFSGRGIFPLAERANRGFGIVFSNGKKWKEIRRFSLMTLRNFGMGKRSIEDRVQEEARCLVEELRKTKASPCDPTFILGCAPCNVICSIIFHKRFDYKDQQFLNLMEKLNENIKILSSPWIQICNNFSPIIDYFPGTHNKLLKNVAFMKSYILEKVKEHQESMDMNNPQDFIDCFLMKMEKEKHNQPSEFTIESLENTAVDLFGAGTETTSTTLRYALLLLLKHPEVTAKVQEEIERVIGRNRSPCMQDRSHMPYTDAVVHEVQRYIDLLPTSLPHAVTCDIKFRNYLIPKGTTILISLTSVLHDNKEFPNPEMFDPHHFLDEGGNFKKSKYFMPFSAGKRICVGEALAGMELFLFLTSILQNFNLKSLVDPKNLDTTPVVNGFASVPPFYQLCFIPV

One data set deals with Parkin (Homo sapiens (Human), UniProt O60260). The experiment in a line: Primary HCI assay of EGFP-Parkin translocation to mitochondria. The settings on record: primary assay screen, Parkin translocation to mitochondria. The format is cell-based. The protocol: GFP-Parkin is localized throughout the cell in unstressed cells but translocates to mitochondria when the mitochondrial membrane potential is compromised and Parkin is activated. After automated image acquisition of fixed cells, regions of interest of each cell were defined with the analysis software. […] To quantify the relocalization of GFP-Parkin to mitochondria, the ratio of the GFP intensity in the cytoplasm and the nucleus was calculated. Under non-stressed condition, this ratio is about 1. FIG. 1B is a bar graph showing the results of the assay with a Z factor (Z′) of 0.5-0.8, which indicates its robustness and usefulness as a screening assay. Validation of the assay has been performed by using PINK1 siRNA.
Parkin, sequence (O60260 whole entry): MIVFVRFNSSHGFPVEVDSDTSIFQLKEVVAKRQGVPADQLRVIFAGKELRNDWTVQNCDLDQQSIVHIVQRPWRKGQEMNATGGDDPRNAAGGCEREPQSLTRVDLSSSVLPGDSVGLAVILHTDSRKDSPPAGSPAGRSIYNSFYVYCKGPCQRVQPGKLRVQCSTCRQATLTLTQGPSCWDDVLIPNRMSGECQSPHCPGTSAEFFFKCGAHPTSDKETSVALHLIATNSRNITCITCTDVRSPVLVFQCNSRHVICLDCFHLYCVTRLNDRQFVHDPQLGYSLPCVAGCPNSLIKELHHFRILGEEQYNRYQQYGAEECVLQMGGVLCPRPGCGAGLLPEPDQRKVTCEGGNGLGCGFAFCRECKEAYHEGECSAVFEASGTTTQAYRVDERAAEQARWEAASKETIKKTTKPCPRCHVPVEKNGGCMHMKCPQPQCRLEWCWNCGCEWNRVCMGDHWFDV
FIGS. 2A-2C show a primary HCI assay with CCCP titration. FIG. 2A is a graphic description of the primary HCI assay of EGFP-Parkin translocation. HeLa cells stably expressing GFP-Parkin were seeded with 1350 cells per well in 384-well plates (25 μL per well). Cells were allowed to attach overnight before drug was added 2× concentrated in a volume of 25 μL in triplicates. After 2 h, 50 μL of a 2× low-dose CCCP (yielding a final concentration of 3.5 μM CCCP) was added to all wells that contained test compounds and for the negative control. For positive control wells, CCCP was added in a final concentration of 10 μM. After 2 h incubation with CCCP, cells were fixed and labeled with Hoechst for at least 1 h before cells were imaged. […] Values were being normalized to negative and positive control values and plotted as % activity. Z′ was calculated for quality control. Positive controls were indicated in green, negative control wells in red. Drugs that lead to more than 50% activity are considered positive (blue).
Functional testing of compounds was performed using an established primary HCI assay for Parkin translocation, which correlates well with enzymatic activation (Fiesel et al., J. Cell Science (2014) 127:3488-3504; Fiesel et al., Human Mutation (2015) 36:774-786). In brief, 1400 HeLa cells stably expressing EGFP-Parkin were seeded into optical 384-well plates (Greiner BioOne) in 25 μL media and allowed to adhere for 40 h. Compounds 1, 2, 3, 4, and 31 were added to the plate as 2× concentrated stocks. Control wells were treated with equal volume of DMSO in media. After 2 h, unless otherwise stated, CCCP was added as 2× concentrated stock with a final assay concentration of 10 μM for PC wells and 3.5 μM for test and NC wells. This low dose of CCCP was experimentally determined by a dose response curve of CCCP to result in no Parkin translocation (FIG. 13). After another 2 h, cells were fixed in 4% paraformaldehyde for 10 min and stained with Hoechst 33342 (1:5000, Invitrogen) before plates were imaged and analyzed.
Image acquisition was performed on a BD Pathway 855 with the Attovision V1.6 software (BD Biosciences). Wells were imaged with a 20× objective using a 2×2 montage with laser autofocus. EGFP exposure time was 0.0175 sec, Hoechst 0.0015 sec. Raw images were not processed and directly analyzed using a build-in ‘RING—2 output’ algorithm. Values were exported and normalized using JMP 11 software and transferred to GraphPad Prism 7 for quality control, graphing and curve fitting for DRCs with a variable slope using four parameters. […] Values were normalized to both PC and NC values from 24 wells each per plate and the Z′ score was calculated. Plates with Z′<0.5 were repeated.
`O=C(Cn1ccnc1)Nc1ccc(-c2ccccc2)c(Cl)c1` [Compound 6] registered an EC50 of 2 µM.
The same measure, in the same setting: the result for `O=C(Cn1ccnc1)Nc1ccc(OCC2CCCCC2)cc1` [Compound 8] reads 5 µM; that for `O=C(Cn1ccnc1)Nc1ccc(CN2CCc3ccccc32)cc1` [Compound 9], 5 µM.
Same read-out and setting: the result for `O=C(Cn1ccnc1)Nc1ccc(C23CC4CC(CC(C4)C2)C3)cc1` [Compound 10] reads 5 µM; that for `O=C(Cn1ccnc1-c1ccncc1)Nc1ccc(-c2ccccc2)cc1` [Compound 11], 5 µM.
Turning to `O=C(Cn1ccnc1)Nc1ccc(-c2ccccc2)c(C(F)(F)F)c1` [Compound 12], the EC50 stood at 5 µM.
On the same count and under the same terms, the value for `O=C(Cn1ccnc1)Nc1nc(-c2ccccc2)co1` [Compound 13] was 5 µM.
As to `O=C(Cn1ccnc1)Nc1ccc(Oc2ccccc2)cc1` [Compound 14], the EC50 was 5 µM.
Same read-out and setting: the result for `O=C(Cn1ccnc1)Nc1ccc(COC2CCCC2)cc1` [Compound 15] reads 5 µM; that for `N#Cc1ccc(Oc2ccc(NC(=O)Cn3ccnc3)cc2)cc1` [Compound 16], 5 µM; that for `CC(C)Cc1ccc(NC(=O)Cn2ccnc2)cc1` [Compound 17], 5 µM.
Same read-out and setting: the value for `O=C(Cn1ccnc1)Nc1ccc(SC2CCCC2)cc1` [Compound 18] was 5 µM; that for `Cc1nccn1CC(=O)Nc1ccc(-c2ccccc2)cc1` [Compound 19] was 10 µM.
As to `O=C(Cc1ccncc1)Nc1ccc(-c2ccccc2)cc1` [Compound 20], the EC50 is 10 µM.
Same read-out and setting: the value for `O=C(Nc1ccc(-c2ccccc2)cc1)c1cn2c(n1)CCCC2` [Compound 21] was 0.238 µM; that for `O=C(Cn1cnc2c1CCCC2)Nc1ccc(-c2ccccc2)cn1` [Compound 22] was 0.246 µM.
Same read-out and setting: the result for `O=C(Cn1cnc2c1CCCC2)Nc1ccc(-c2ccccn2)cc1` [Compound 23] reads 0.272 µM.
Still for that read-out and setting: the result for `Cc1nccc(-c2ccc(NC(=O)Cn3cnc4c3CCCC4)cc2)n1` [Compound 24] reads 0.19 µM; that for `O=C(Cn1cnc2c1CCCC2)Nc1ccc(-c2ccccc2F)nn1` [Compound 25], 0.382 µM; that for `O=C(Cn1cnc2c1CCCC2)Nc1cnc(-c2ccccc2)nc1` [Compound 26], 0.938 µM.
For `Cc1ccnc(-c2ccc(NC(=O)Cn3cnc4c3CCCC4)cc2)n1` [Compound 27], the EC50 stood at 0.19 µM.
Regarding `Cc1cc(NC(=O)Cn2cnc3c2CCCC3)ccc1-c1ccncc1` [Compound 28], the EC50 was found to be 0.134 µM.
On the same count and under the same terms, the value for `O=C(Cn1ccnc1-c1ccccc1)Nc1ccc(-c2ccccc2)cc1` [Compound 29] was 2 µM; that for `Cc1cc(NC(=O)Cn2ccnc2)ccc1-c1ccccc1` [Compound 30] was 5 µM.
Same read-out and setting: the value for `Cc1nc2c(c(N3CCCN(Cc4csc(C)n4)CC3)n1)CCCC2` [Compound 35] was 10 µM; that for `COc1ccc(CN2CCCN(c3ncnc4c3CN(C)CC4)CC2)cc1` [Compound 36] was > 10 µM; that for `Cc1nc2c(c(N3CCN(C(=O)c4ccccc4)CC3)n1)CCCC2` [Compound 40] was > 10 µM.
With `Cc1nc2c(c(N3CCCN(Cc4noc(C5CC5)n4)CC3)n1)CCCC2` [Compound 42], the response was half-maximal at 0.707 µM (EC50).
In turn, `Cc1nc2c(c(N3CCCN(Cc4cccs4)CC3)n1)CCCC2` [Compound 43] returned an EC50 of 0.28 µM.
Still for that read-out and setting: the value for `Cc1nc2c(c(N3CCN(Cc4ccccc4)C(C)(C)C3)n1)CCCC2` [Compound 44] was 0.438 µM.
`Cc1nc2c(c(N3CCCN(Cc4ccc(Cl)cc4)CC3)n1)CCCC2` [Compound 45] displayed an EC50 of 0.366 µM.
On the same count and under the same terms, the result for `c1ccc(CN2CCCN(c3ncnc4ncccc34)CC2)cc1` [Compound 46] reads 0.203 µM.

The subject of a further data set is TA 98. The experiment in a line: Ames Test, strain TA 98. The settings on record: TA 98, positive control 0.1 μg/plate. From the text:
(§1) The test used amino acid-dependent strains of Salmonella typhimurium and Escherichia coli to detect point mutations which involved substitution, addition or deletion of one or a few DNA base pairs. Point mutations were introduced in the histidine (Salmonella typhimurium) or the tryptophan (Escherichia coli) operon, making the tester strains incapable of producing these amino acids. The test detected mutations that revert the mutations present in the bacteria, restoring the functional capability to synthesize histidine or tryptophan. The revertant bacteria were detected by the ability to grow in the absence of the amino acid required by the parent test strain. A mutagenic potential of a tested compound was assessed by exposing these bacterial strains to different concentrations of the compounds and estimating number of revertant colonies grown in the absence (trace quantities) of the amino acid.
(§2) DMSO was used as the negative control.
(§3) For each experiment, tester strain cultures were grown overnight in Oxoid nutrient broth #2 at 37° C. with shaking at 235 rpm to a density of 1-2×10^9 colony forming units/mL (OD540˜2).
(§4) The tester strain (10 μL of night culture) was mixed with the test agent (10 µL of the DMSO stock) and GM liquid medium (30 μL). The obtained mixture was incubated at room temperature for 5 min in a sterile 1.5 mL tube. Then, to the tube was added 200 μL of molten top agar stored at 44° C. to prevent solidifying. After mixing with a pipette, the mixture was poured onto the surface of a GM agar plate (2.0 mL of GM agar per plate). After solidifying the top agar, the plate was inverted and incubated at 37° C. for 48 hours. Then, results were expressed as number of revertant colonies per plate.
For `O=[N+]([O-])c1ccc2c(c1)Cc1ccccc1-2` [2-nitrofluorene, reference compound], the “Mean ± SD” value is on record as 7 ± 1.41 revertant colonies per plate.

In the next data set the test system is TA 1537. In words: Ames Test, strain TA 1537. The settings on record: TA 1537, positive control 7.5 μg/plate (row printed 50; shifted).
Text: as §1, §2, §3, §4
With `Nc1c2ccccc2nc2ccccc12` [9-aminoacridine, reference compound], the “Mean ± SD” value was 1119 ± 21.21 revertant colonies per plate.

A further data set has as its target CYP 2C9 (Homo sapiens (Human), UniProt P11712). In words: P450-Glo CYP450 inhibition, CYP 2C9. The format is in vitro ADME. The settings on record: human, P450-Glo Assay System (Promega), CYP 2C9 membranes, CYP 2C9, reference inhibitor 120 uM. The protocol: CYP450 inhibition profiling provides valuable information regarding any possible drug-drug interactions for a test compound.
All experiments were performed using P450-Glo™ Assay Systems (Promega) in accordance with the manufacturer's protocols. The P450-Glo™ Assays provide a luminescent readout-based method for measuring cytochrome P450 activity. A conventional cytochrome P450 reaction was performed by incubating the cytochrome P450 and a luminogenic cytochrome P450 substrate. The substrates in the P450-Glo™ assays are derivatives of beetle luciferin. The derivatives themselves are not substrates for luciferase but are converted by cytochrome P450s to luciferin, which in turn reacts with luciferase to produce light. The amount of light produced was directly proportional to cytochrome P450 activity. All test points were performed in quadruplicates. Control membranes (without CYPs) represented the Negative control (baseline).
The following reference compounds were used to assess CYP inhibition: […]
`OC(Cn1cncn1)(Cn1cncn1)c1ccc(F)cc1F` [fluconazole, reference compound] registered an inhibition at 120 µM of 84.5%.

In general, EC50 refers to the concentration at which the effect is half-maximal. Low values mean an effect from little substance, high ones a need for much substance. Broadly, the inhibition is the change of the read-out against control, counted positive when it falls.
